Source: PMC6982876, “Synthesis of Novel Benzodifuranyl; 1,3,5-Triazines; 1,3,5-Oxadiazepines; and Thiazolopyrimidines Derived from Visnaginone and Khellinone as Anti-Inflammatory and Analgesic Agents” (Molecules, 2020)
Marks after values point to notes of the source that are not given here.

Tests used:
ovine COX-1 = target: T1, ovine COX-1 (Ovis aries, UniProt P05979); assay: In vitro COX inhibitor screening assay (EIA kit, Cayman), COX-1; format: biochemical; conditions: mean of two determinations, enzyme kit, read-out: COX1 IC50
T1 construct: purchased Cayman Chemical, Ann Arbor, MI, USA 560131
T1 sequence (P05979 25-600): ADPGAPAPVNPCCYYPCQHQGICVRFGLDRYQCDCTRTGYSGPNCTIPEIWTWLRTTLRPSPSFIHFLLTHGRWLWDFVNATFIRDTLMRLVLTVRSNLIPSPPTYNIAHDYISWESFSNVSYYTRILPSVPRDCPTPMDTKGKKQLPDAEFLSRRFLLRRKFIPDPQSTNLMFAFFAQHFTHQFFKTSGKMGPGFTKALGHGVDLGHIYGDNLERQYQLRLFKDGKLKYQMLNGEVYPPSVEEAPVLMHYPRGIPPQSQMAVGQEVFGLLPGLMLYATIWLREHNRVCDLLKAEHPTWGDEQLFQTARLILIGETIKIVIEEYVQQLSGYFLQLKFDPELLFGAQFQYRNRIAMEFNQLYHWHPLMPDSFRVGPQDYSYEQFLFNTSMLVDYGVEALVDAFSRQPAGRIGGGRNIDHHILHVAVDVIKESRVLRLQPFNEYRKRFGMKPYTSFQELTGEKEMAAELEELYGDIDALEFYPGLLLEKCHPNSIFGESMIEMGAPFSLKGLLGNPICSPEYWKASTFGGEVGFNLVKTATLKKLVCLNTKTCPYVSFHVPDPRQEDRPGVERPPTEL
Protocol: (§1) Furthermore, the selectivity index for COX-2 (COX-1 IC50 / COX-2 IC50) was calculated for the compounds.

human recombinant COX-2 = target: T2, human recombinant COX-2 (Homo sapiens, UniProt P35354); assay: In vitro COX inhibitor screening assay (EIA kit, Cayman), COX-2; format: biochemical; conditions: for COX2 (SI) selectivity index: COX-1 IC50 / COX-2 IC50; for IC50: COX-2, mean of two determinations, enzyme kit, read-out: COX2 IC50
T2 construct: purchased Cayman Chemical, Ann Arbor, MI, USA 560131
T2 sequence (P35354 18-604): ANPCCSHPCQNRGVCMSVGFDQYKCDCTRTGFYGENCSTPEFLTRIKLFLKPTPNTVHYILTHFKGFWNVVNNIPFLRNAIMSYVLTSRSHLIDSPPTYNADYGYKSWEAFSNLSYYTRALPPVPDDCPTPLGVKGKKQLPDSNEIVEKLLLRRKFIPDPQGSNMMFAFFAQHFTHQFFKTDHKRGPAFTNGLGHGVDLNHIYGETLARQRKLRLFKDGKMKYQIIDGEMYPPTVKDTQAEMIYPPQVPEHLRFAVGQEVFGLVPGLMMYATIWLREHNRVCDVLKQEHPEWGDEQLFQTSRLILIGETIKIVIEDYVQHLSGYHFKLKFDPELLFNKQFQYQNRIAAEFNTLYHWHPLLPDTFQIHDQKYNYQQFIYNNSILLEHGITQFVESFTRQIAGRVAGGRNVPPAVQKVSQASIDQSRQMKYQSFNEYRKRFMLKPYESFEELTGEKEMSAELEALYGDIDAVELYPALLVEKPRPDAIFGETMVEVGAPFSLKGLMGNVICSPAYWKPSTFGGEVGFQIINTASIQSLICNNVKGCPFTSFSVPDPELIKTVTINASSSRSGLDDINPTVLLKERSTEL
Protocol: as §1

[1] = system: acetic acid-induced writhing in mice; assay: Acetic acid-induced writhing test (analgesic activity); format: in vivo; conditions: 10 mg/kg p.o., n = 5; for Writhing Number in 20 min (Mean ± SEM): acetic acid 1 h after dosing; for Analgesic Activity (% protection): writhing test
Method in brief: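 Mice of 25–30 g, fasted 8 h, given compound at 10 mg/kg p.o., five animals per group. One hour later, 1% acetic acid i.p. (0.1 mL/10 g); writhes counted over 20 min. Percent protection calculated against the saline control group.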

[2] = system: carrageenan-induced paw edema in rats; assay: Carrageenan-induced paw edema (anti-inflammatory activity); format: in vivo; conditions: 10 mg/kg oral; for % Change in Paw Height (Mean ± SEM): n = 5
Method in brief: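 Albino rats weighing 150–180 g, in groups of five, received test compounds orally at 10 mg/kg; one hour later 0.1 mL of 1% carrageenan was injected into the left hind paw. Paw inflammation height was measured by digital caliber plethysmometer at 0, 1, 2 and 3 h, expressed as percentage increase relative to the uninjected right paw, with percentage edema inhibition versus control calculated at 3 h.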

[3] = system: interleukin-1 beta (IL-1 β); assay: ELISA of serum interleukin-1 beta after paw edema test; format: in vivo, rats; conditions: rat serum at the end of the paw edema test, mean ± SEM, n = 5
Protocol: IL1 is one of the important inflammatory mediators and is used to confirm the anti-inflammatory activities of new anti-inflammatory compounds. At the end of the paw edema test, blood samples were collected from the orbital axis of the eye under light ether anesthesia. Sera were separated after centrifugation of blood at 5000 rpm for 15 min; the sera were stored at –80 °C until the ELISA assay was performed according to the manufacturer instructions.

SMILES	IC50 (ovine COX-1) [µM]	COX2 (SI) selectivity index (human recombinant COX-2)	IC50 (human recombinant COX-2) [µM]	Writhing Number in 20 min (Mean ± SEM) [1]	Analgesic Activity (% protection) [1]	% Change in Paw Height (Mean ± SEM) ([2]; 1 hr after carrageenan)	% Change in Paw Height (Mean ± SEM) ([2]; 2 hr after carrageenan)	Anti-Inflammatory Activity (% Inhibition of Edema) ([2]; 3 hr after carrageenan) [%]	% Change in Paw Height (Mean ± SEM) ([2]; 3 hr after carrageenan)	IL-1 β Concentration [3]	melting point [°C]
COc1c2occc2c(OC)c2c(C)c(C(=Nc3cc(N4CCOCC4)nc(N4CCOCC4)n3)N3CCOCC3)oc12 [Compound 10d, 1-(4,8-dimethoxy-3-methylbenzo [1,2-b: 5,4-b`]difuran-2-yl)-N-(2,6-dimorpholino-pyrimidin-4-yl)-1-morpholinomethanimine]	4.45	97	0.046	26 ± 1.2 ^a	49 ± 1.1 ^a %	0.20 ± 0.01 ^a %	0.15 ± 0.02 ^a %	66	0.17 ± 0.02 ^a %	32 ± 0.45 ^b Pg /mL	> 350
COc1c2occc2c(OC)c2c(C)c(C3=NC4=CC(=O)N5C(=O)C(=Cc6ccc(Cl)cc6)SC5N4C(=O)C(=Cc4ccc(Cl)cc4)O3)oc12 (stereo not drawn) [Compound 13e, 2,10-bis(4-chlorobenzylidene)-8-(4,8-dimethoxy-3-methylbenzo[1,2-b:5,4-b`]difuran-2-yl)-5H,12aH-thiazolo[2’,3’:2,3]pyrimido[6,1-d][1,3,5]oxadiazepine-3,5,11(2H,10H)-trione]	5.1	96	0.053	28 ± 1.3 ^a	47 ± 1.7 ^a %	0.22 ± 0.01 ^a %	0.17 ± 0.02 ^a %	64	0.19 ± 0.02 ^a %	34 ± 0.33 ^b Pg /mL	> 350
COc1c2ccoc2cc2oc(C(=Nc3cc(N4CCNCC4)nc(N4CCNCC4)n3)N3CCNCC3)c(C)c12 [Compound 10a, N-(2,6-di (piperazin-1-yl)pyrimidin-4-yl)-1-(4-methoxy-3-methylbenzo [1,2-b: 5,4-b`]difuran-2-yl)-1-(piperazin-1-yl) methanimine]	4.23	98	0.043	25 ± 1.3 ^a	50 ± 1.6 ^a %	0.19 ± 0.01 ^a %	0.14 ± 0.02 ^a %	67	0.16 ± 0.02 ^a %	31 ± 0.55 ^b Pg /mL	> 350
